As a reminder, the Ki is a dissociation constant, usually derived from enzyme kinetics or from competition with a known ligand. Lower therefore signals higher affinity. The viability is a per cent measure of how many cells are alive, often set against a control. Low readings indicate more harm to the cells, high ones less harm to the cells.

Several values for one entry are separate records, joined by “and”; a condition that tells them apart may be missing. Equal entries are not always repeated. Entries after “also recorded” stand apart in the source; their conditions may differ.

The record followed here is patent publication US4296206A, “Irreversible anti-glucocorticoids” (United States of America, priority 1980, dated 1981).

The target of data set [1] is T1, HTC cell glucocorticoid receptors (Rattus norvegicus, UniProt P06536).
T1 construct: crude receptors from a well characterized line of rat hepatoma tissue culture (HTC) cells; endogenous in cells; host or cells: HTC (rat hepatoma tissue culture) cells, crude cytosol
T1 sequence (P06536 1-795): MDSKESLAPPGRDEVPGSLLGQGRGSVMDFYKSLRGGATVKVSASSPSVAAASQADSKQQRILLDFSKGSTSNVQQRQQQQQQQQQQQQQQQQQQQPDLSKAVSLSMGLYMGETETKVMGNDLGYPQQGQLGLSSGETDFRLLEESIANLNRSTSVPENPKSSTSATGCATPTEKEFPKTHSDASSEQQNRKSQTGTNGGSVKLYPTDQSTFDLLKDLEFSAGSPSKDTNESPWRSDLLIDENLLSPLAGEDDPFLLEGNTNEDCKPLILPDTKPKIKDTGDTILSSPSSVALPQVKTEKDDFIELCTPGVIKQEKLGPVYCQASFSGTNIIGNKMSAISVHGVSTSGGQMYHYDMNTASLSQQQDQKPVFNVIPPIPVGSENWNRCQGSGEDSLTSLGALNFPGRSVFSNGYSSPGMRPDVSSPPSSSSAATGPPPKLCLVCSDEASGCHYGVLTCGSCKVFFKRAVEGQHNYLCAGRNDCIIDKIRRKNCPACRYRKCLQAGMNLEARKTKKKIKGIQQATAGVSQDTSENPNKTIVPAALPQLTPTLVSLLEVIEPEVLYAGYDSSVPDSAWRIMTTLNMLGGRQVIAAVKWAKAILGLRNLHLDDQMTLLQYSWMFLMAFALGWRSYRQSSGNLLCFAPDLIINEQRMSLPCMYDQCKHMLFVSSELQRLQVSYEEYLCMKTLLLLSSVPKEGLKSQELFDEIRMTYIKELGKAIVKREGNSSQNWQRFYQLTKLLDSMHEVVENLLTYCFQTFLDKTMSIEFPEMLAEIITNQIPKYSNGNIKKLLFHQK
Briefly: cell-free competition assay with 3H-dexamethasone, crude HTC cell receptors. The format is binding. An excerpt: (§1) Ir (nujol) ~3400. 1733, 1659, 1359, 1170 cm^-1. […] 59.98; H. 7.32; S. 7.28.
In general, the introduction of bulky substituents on the C21 of glucocorticoids results in derivatives with a reduced affinity for glucocorticoid receptors as described, for example, in Failla, D. et al., Proc. Nat. Acad. Sci. USA, 72, 3849-3852 (1975). […] The data for FIG. 1 was obtained from a determination of relative affinities of cortisol and cortisol-21-mesylate for HTC cell glucocorticoid receptors in a cell-free competition assay. Duplicate crude HTC cell receptor solutions were incubated for 3 hrs at 0° with 5.6×10^-9 M ^3 H-dexamethasone and varying concentrations of cortisol, or CM (final protein concentration=5.1 mg/ml). A 500 fold excess of ^1 H-dexamethasone was used to determine the level of non-specific binding of ^3 H-steroid. The average specifically bound ^3 H-dexamethasone in the presence of varying concentrations of cortisol or CM was plotted as % of the uncompeted control (variation less than ±4%).

Data set [2] deals with tyrosine aminotransferase (TAT) induction in HTC cells. Description: induction of tyrosine aminotransferase (TAT) in whole HTC cells. Type of data set: cell-based, rat.
Source text: as §1
HTC cells display several biological responses to glucocorticoids. Tyrosine aminotransferase (TAT) is one specific, glucocorticoid inducible enzyme in HTC cells; and previous extensive studies argue that TAT induction in HTC cells is a primary response to glucocorticoids that is initiated by the binding of steroid to a specific, cytoplasmic receptor. […] The basal level of TAT activity is shown by the dashed line.

Data set [3] has as its target T2, dexamethasone induction of TAT in HTC cells (Rattus norvegicus, UniProt P06536).
T2 construct: endogenous in cells; host or cells: HTC (rat hepatoma tissue culture) cells, whole, monolayer or spinner cultures
T2 sequence (P06536 1-795): T1 sequence (P06536 1-795)
Description: inhibition of dexamethasone induction of TAT activity in whole HTC cells. The format is cell-based. Here is the method: as §1
Alternatively, CM could be a anti-inducer, or inhibitor of glucocorticoid action. […] After the usual incubation (18 hrs/37°) and work-up, the specific enzyme activity of TAT was plotted against the concentration of that steroid present in varying amounts. The range of each duplicate determination is shown by error bars when it exceeds the area of the data points. The basal level of TAT activity is indicated by the dashed line.

Data set [4] concerns the target T2, dexamethasone induction of TAT in HTC cells. Description: TAT induction after pre-treatment of HTC cells and washing (reversibility). Type of data set: cell-based. The following applies: for reversal of pre-incubation effect on dexamethasone induction of TAT by washing the cells: pre-incubation overnight, wash, then 2×10^-8 M dexamethasone. As to the method: One approach to establishing CM as an irreversible inhibitor of TAT induction by glucocorticoids is to determine whether the effects of CM can be reversed by washing the cells.
After incubation at 37°/15 1/2 hrs, ~6×10^7 cells were centrifuged at 600 xg/10 min/22°and resuspended in 200 ml of "conditioned" medium that had also been "incubated" at 37°/15 1/2 hrs. After a second centrifugation, each cell pellet was again resuspended in 210 ml of "conditioned" medium. […] The cells in Wheaton bottles were incubated in a rotating water bath (37°/175 rpm) with 3 ml aliquots being removed at various time points for protein and TAT determinations in the usual manner.

Data set [5] has as its target T1, HTC cell glucocorticoid receptors. Briefly: cell-free exchange assay (3H-dexamethasone exchange binding to pre-formed complexes). The following applies: for effect of pre-incubation of steroid-free receptors on subsequent exchange-binding of 3H-dexamethasone: cell-free. Here is the method: as §1
To examine this possibility in more detail, a determination was made as to whether the cell-free binding of CM to HTC cell receptors is reversible. Using the previously described exchange assay, crude HTC cell receptors were incubated with enough cortisol, or CM, to occupy ~75% of the receptor based on data of FIG. 1. After ~3 hrs, activated charcoal was added to remove free steroid and to inactivate steroid-free receptors. An excess of ^3 H-dexamethasone was then added to exchange-bind to the previously formed receptor-steroid complexes. […] Thus CM is an irreversible inhibitor of one aspect of glucocorticoid action in broken cells, i.e., the ability of glucocorticoids to exchange-bind to receptor-glucocorticoid complexes.
FIG. 5 is based on data obtained in studying inhibition of ^3 H-dexamethasone exchange binding to pre-formed complexes by cortisol-21-mesylate. Using the previously described exchange assay, crude HTC cell receptors were pre-incubated with 6×10^-8 M cortisol or 1.35×10^-6 M CM for 2.8 hrs at 0° (final protein concentration=7.0 mg/ml). After addition of activated charcoal to remove free steroid, and to inactivate steroid-free receptors, followed by centrifugation to pellet the activated charcoal, the pre-incubated cytosols were adjusted to 1.9×10^-8 M ^3 H-dexamethasone ±1.1×10^-5 M ^1 H-dexamethasone. After subsequent incubation for the indicated time, activated charcoal was again added to determine the amount of specifically bound ^3 H-dexamethasone (=total-non-specific binding) that was formed by exchange binding in cortisol or CM pre-incubated cytosols. For comparison, the amount of non-specific binding in cortisol or CM pre-incubated receptor solutions is shown in dashed lines.

A further data set deals with rats. Description: experiment with rats, daily intraperitoneal injections. Type of data set: in vivo, rat. The text has this: In the experiments and uses of CM and DM described above, the toxicity of either compound was negligible. […] In order to be more useful in animals and people, two approaches can be used to reduce this toxicity. […] Second, alternative routes of administration (e.g., oral, intravenous, intramuscular and subcutaneous) might be less toxic.

A short description of a further data set: in vitro. The following applies: rat, htc cells.
A short description of data set [6]: cell toxicity in HTC cells (protein content, cell number, trypan blue exclusion). The following applies: rat.

For the compound `C[C@]12CCC(=O)C=C1CC[C@@H]1[C@@H]2[C@@H](O)C[C@@]2(C)[C@H]1CC[C@]2(O)C(=O)COS(C)(=O)=O` [CM, 4-pregnene-11β, 17α, 21-triol-3, 20-dione-21-methanesulfonate], the “cell-free affinity for the glucocorticoid receptors of HTC cells” value in data set [1] is “low but significant”. Besides, the “affinity for glucocorticoid receptors, fold lower than that of the parent steroid cortisol” value in [1] (3 hrs at 0°, 5.6×10^-9 M 3H-dexamethasone, crude HTC cell receptors) turned out to be 15 fold. In addition, the “apparent Kd with HTC cell glucocorticoid receptors, times greater than the Kd of cortisol” value in [1] (CM) came to 15 times. Further, the “induction of TAT in whole HTC cells” value in data set [2] (18 hrs at 37°) was “completely inactive; also recorded: does not induce TAT”. For the same compound, in data set [3], the Ki was around 100 nM and the “inhibition of TAT induction by dexamethasone in whole cells” value is “potent inhibitors”. In addition, in data set [3] (1.3×10^-6 M CM), the “TAT induction by 2×10^-8 M dexamethasone in the presence of the compound” value is recorded as “slight but significant increase in TAT” and the “TAT induction by 10^-7 M cortisol in the presence of the compound” value was “unable to induce TAT”. For the same compound, the “duration of activity as anti-glucocorticoid in HTC cell cultures” value in data set [3] (37°, tissue culture) was ~ 18 hrs and 17-18 hrs. Besides, the “time after which no longer completely inhibitory (some inducibility of TAT returns)” value in [3] (HTC cells) is reported as “about 24 hr”. In [4] (24 hrs after wash), the “magnitude of TAT induction 24 hrs after the wash procedure in pre-treated, post-dexamethasone treated cells” value is “significantly reduced; also recorded: only partial induction”. For the same compound, in data set [4] (average of three experiments), the “appearance of TAT in pre-treated cells, delay after TAT induction in EtOH or progesterone pre-treated cells” value amounted to 2.7 h. Besides, in [4] (pre-CM, post-dexamethasone), the “time without TAT induction after the wash procedure in pre-treated, post-dexamethasone treated cells” value was ~ 8 hrs and 6-8 hrs. In addition, in data set [4], the “reversal of pre-incubation effect on dexamethasone induction of TAT by washing the cells” value is reported as “can not reverse; also recorded: cannot be reversed by washing the cells”. In addition, in data set [5], the “effect of pre-incubation of steroid-free receptors on subsequent exchange-binding of 3H-dexamethasone” value is reported as “inhibits”. The inhibition at 1.35 µM in [5] (pre-incubation 1.35×10^-6 M CM, ~3 hrs at 0°, read-out: reduction of the ability of receptors to exchange-bind 3H-dexamethasone) is around 75%. Besides, the “anti-glucocorticoid activity in rats” value in the data set with rats (daily intraperitoneal injections of 10-50 mg per kilogram) is “some anti-glucocorticoid activity”. For the same compound, the “toxicity in rats at higher doses” value in the data set on rats (≥100 mg/kilogram, intraperitoneal) was “peritonitis and death”. In the data set on HTC cells, the “effect on cell number” value was “no effect” and the “effect on total cell protein” value was ~1% increase to 6% decrease. In the data set “in vitro”, this compound came in with a cytotoxicity of 20%. Also, in data set [6], the cytotoxicity at 13 µM came to 12% and the viability fell in the range of 93 to 94%.

Consider `C[C@@H]1C[C@H]2[C@@H]3CCC4=CC(=O)C=C[C@]4(C)[C@@]3(F)[C@@H](O)C[C@]2(C)[C@@]1(O)C(=O)COS(C)(=O)=O` [DM, 16α-methyl-9α-fluoro-1,4-pregnadiene-11β, 17α, 21-triol-3, 20-dione-21-methane-sulfonate], for which the “cell-free affinity for the glucocorticoid receptors of HTC cells” value in data set [1] was “low but significant”. In addition, in [1] (cell free receptors), the “affinity for cell free receptors, fold higher than CM” value is “approximately 10 fold”. Also, the Emax in data set [2] (Rattus norvegicus, whole HTC cells, read-out: induction of TAT in HTC cells, % of full induction) was around 25%. Moreover, in data set [3], the “inhibition of TAT induction by dexamethasone in whole cells” value is “potent inhibitors”. The “reversal of pre-incubation effect on dexamethasone induction of TAT by washing the cells” value in [4] is “cannot be reversed by washing the cells”. For the same compound, the “effect of pre-incubation of steroid-free receptors on subsequent exchange-binding of 3H-dexamethasone” value in data set [5] is given as “inhibits”.
